# Measurements reported in ChEMBL document CHEMBL5321223, “Effects and mechanism of action of Chrysanthemum morifolium (Jinsi Huangju) on hyperlipidemia and non-alcoholic fatty liver disease” (Eur J Med Chem, 2023).
# Legend:
# [1] = tested on: HepG2; assay: Hypolipidemic activity in sodium oleate and sodium palmitate induced human HepG2 cells assessed as decrease in intracellular lipid content at 5 uM by Oil Red O staining based assay; assay type: functional; parameters: scale not given: the % may be the effect or the level left
# [2] = tested on: HepG2; assay: Hypolipidemic activity in sodium oleate and sodium palmitate induced human HepG2 cells assessed as decrease in intracellular lipid content at 50 uM by Oil Red O staining based assay; assay type: functional; parameters: scale not given: the % may be the effect or the level left
# [3] = tested on: HepG2; assay: Hypolipidemic activity in sodium oleate and sodium palmitate induced human HepG2 cells assessed as decrease in intracellular lipid content at 0.025 mg/ml by Oil Red O staining based assay; assay type: functional; parameters: scale not given: the % may be the effect or the level left
# [4] = target: T1, Pancreatic triacylglycerol lipase (Homo sapiens) (UniProt P16233); assay: Inhibition of Pancreatic lipase (unknown origin) using 4-methylumbelleallyl oleate as substrate at 5 uM by microplate reader assay
# T1 sequence (whole entry): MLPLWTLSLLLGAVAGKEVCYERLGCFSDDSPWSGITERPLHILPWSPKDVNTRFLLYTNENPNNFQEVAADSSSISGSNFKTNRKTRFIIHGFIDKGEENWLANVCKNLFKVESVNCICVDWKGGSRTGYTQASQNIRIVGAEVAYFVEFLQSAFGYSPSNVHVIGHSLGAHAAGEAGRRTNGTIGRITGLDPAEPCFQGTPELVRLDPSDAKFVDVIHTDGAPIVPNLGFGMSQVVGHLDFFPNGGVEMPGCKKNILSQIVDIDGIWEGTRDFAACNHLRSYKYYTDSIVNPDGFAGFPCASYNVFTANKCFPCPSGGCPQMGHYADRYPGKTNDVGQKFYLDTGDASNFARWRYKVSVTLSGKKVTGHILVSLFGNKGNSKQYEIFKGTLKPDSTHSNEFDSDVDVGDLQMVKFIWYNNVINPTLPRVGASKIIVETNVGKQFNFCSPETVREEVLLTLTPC
# [5] = tested on: HepG2; assay: Cytotoxicity against human HepG2 cells assessed as reduction in cell survival at 50 uM; assay type: toxicity, cell-based; conditions: hepg2, 50 µM
# [6] = target: T1, Pancreatic triacylglycerol lipase (Homo sapiens); assay: Inhibition of Pancreatic lipase (unknown origin) using 4-methylumbelleallyl oleate as substrate at 50 uM by microplate reader assay
inhibition [4],inhibition [6],SMILES,Activity [1],Activity [2],Activity [3],Activity [5]
–,–,CC[C@H](C)C(=O)O[C@H]1C[C@@H](C)C=C2C=C[C@H](C)[C@H](CC[C@@H]3C[C@@H](O)CC(=O)O3)[C@H]21 [LOVASTATIN],76.9%,89.3%,97%,–
13.2%,59.1%,O=c1cc(-c2ccc(O)cc2)oc2cc(O[C@@H]3O[C@H](CO)[C@@H](O)[C@H](O)[C@H]3O)cc(O)c12 [APIGETRIN],95.1%,97.7%,–,Non-Toxic
–,65.8%,O=C(O)CC(=O)OC[C@H]1O[C@@H](Oc2cc(O)c3c(=O)cc(-c4ccc(O)c(O)c4)oc3c2)[C@H](O)[C@@H](O)[C@@H]1O,61.5%,57.1%,–,Non-Toxic
